Results as given in PubChem BioAssay AID2060501 (Molecular Pharmacology Branch, DTP, NCI, 2025).
pIC50: −log10 of the molar value. Several values for one entry are separate records, joined by “and”; a condition that tells them apart may be missing. Identical values can stand only once.

Test system: 282377-053-R-J1-PDC complex spheroids, viability
Test: Anticancer human tumor 282377-053-R-J1-PDC patient-derived colon adenocarcinoma cell line growth inhibition [GQUAD]
Settings: for viability, T/C: stronger effect = lower value
Text: DNA G-quadruplex Stabilizer Agents in Combinations in Complex Spheroids
A high-throughput screen of multi-cell type tumor spheroids was designed to identify active combinations of DNA G-quadruplex stabilizer agents and targeted small molecules. Complex spheroids include a stromal component modeled by human endothelial cells (HUVEC) and fibroblasts modeled by human mesenchymal stem cells (MSCs). The concentration ranges selected for each drug and investigational agent were based upon clinically achievable concentrations if the clinical Cmax of the agent was known.
Compounds. The drugs and investigational agents: pidnarulex (CX-5461; NSC782164), APTO-253 (NSC789042), BRACO-19 (NSC847499), peposertib (NSC802822), ceralasertib (NSC780249), elimusertib (NSC800525), camonsertib (NSC841442), AZD-1390 (NSC803789), olaparib (NSC753686), talazoparib (NSC767125), ART-558 (NSC835418), sotorasib (NSC818433), MRTX-1133 (NSC836407), SN-38 (NSC673596), topotecan (NSC609699), etoposide (NSC141540), doxorubicin (NSC123127), gemcitabine (NSC613327), 5-fluorouracil (NSC19893), paclitaxel (NSC125973), vemurafenib (NSC761431), panobinostat (NSC761190), R-306465 (JNJ-16241199; NSC773264), adavosertib (NSC754352), TP-3654 (NSC805149), carboplatin (NSC241240), KSQ-4279 (NSC840948), and staurosporine (NSC755774) were obtained from the National Cancer Institute (NCI) Developmental Therapeutics Program Chemical Repository (34). The FDA-approved anticancer drug set is available from the NCI Developmental Therapeutics Program. […] The stock solutions were prepared in dimethyl sulfoxide (DMSO, Sigma-Aldrich, St. Louis, MO, cat. D2650) at 800-fold the tested concentration and stored at -70 degrees C prior to their use. All drugs and investigational agents were tested over a range starting from a high concentration at or near the clinical Cmax and decreasing in half-log increments. If the clinical Cmax for an agent had not been determined, the highest concentration tested was 10 microM.
2.3 Cell Culture. All cells were maintained in an incubator at 37 degrees C and 5% CO2 with 95% humidity. The PDC lines were cultured according to standard operating procedures established by the NCI PDMR. All PDCs were thawed and cultured in Matrigel-coated flasks prepared with a working solution of 1X Ham's F-12 nutrient mix, without supplementation (Invitrogen, cat. 11765054), 100 U/mL penicillin-streptomycin (Invitrogen, cat. 15140122), and 2.5% Matrigel (Corning Inc., cat. 354248) for the first three passages. The 857933-349-R-J2-PDC line was cultured in 6C/Colon 1B media, which includes advanced DMEM/F-12 (Thermo Fisher Scientific, cat. 12634028), 10 mM HEPES (Thermo Fisher Scientific, cat. 15630080), 1X GlutaMAX supplement (Thermo Fisher Scientific, cat. 35050061), 0.1 mg/mL primocin (InvivoGen, cat. ant-pm-2), 10% defined fetal bovine serum, heat inactivated (HyClone Laboratories Inc., cat. SH30070.03HI), 50% L-WRN conditioned media (ATCC, cat. CRL-3276), 1.25 mM N-Acetyl-L-cysteine (Sigma-Aldrich, cat. A9165), 10 mM nicotinamide (Sigma-Aldrich, cat. N0636), 1X B-27 supplement (Thermo Fisher Scientific, cat. 17504044), 1X N-2 supplement (Thermo Fisher Scientific, cat. 17502048), 10 microM Y-27632 dihydrochloride (Tocris Bioscience, cat. 1254), and 50 ng/mL human EGF recombinant protein (Thermo Fisher Scientific, cat. PHG0311). The 485176-168-R4-J1-PDC line was cultured in Panc media, which includes all 6C/Colon 1B media components plus 100 ng/mL human FGF-10 (Thermo Fisher Scientific, cat. 100-26), 500 nM SB-431542 (Selleckchem, cat. S1067), and gastrin (Tocris, cat. 3006).
[…]

[1] = compound alone, run of 04/22/2024
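Also: spheroids exposed to compounds for 7 days before readout.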
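For viability, T/C in this document: percent of vehicle DMSO control viability with 100% = untreated-like growth.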

SMILES	pIC50 [1]	pIC50 (curve of compound)	pIC50 (compound alone, run of 04/16/2024)	viability, T/C (compound 0.1 µM)	viability, T/C (compound 3.16 µM)	viability, T/C (compound 0.0316 µM)	viability, T/C (compound 0.316 µM)	viability, T/C (compound 1 µM)	viability, T/C (compound 10 µM)	viability, T/C (compound 0.000999 µM)	viability, T/C (compound 0.00316 µM)	viability, T/C (compound 0.00999 µM)	viability, T/C (compound 0.0999 µM)
CN(C)c1ccc(Nc2c3ccc(NC(=O)CCN4CCCC4)cc3nc3cc(NC(=O)CCN4CCCC4)ccc23)cc1	< 5.00			96.9% [middle of 12 runs]	99.2% [middle of 12 runs]								
COc1ccc([C@@H](O)c2cc(-c3ncnc4cc(N5CCOCC5)ccc34)c(F)cc2Cl)nn1		< 5.00		85.6% and 80.6% and 90.8%	68.9% and 82.5% and 101%	86.5% and 96.3% and 89.9%	74.5% and 109% and 86.2%	67.9% and 79.6% and 93.6%	57.6% and 61.8% and 71.7%				
COc1cccc2c1C(=O)c1c(O)c3c(c(O)c1C2=O)CC(O)(C(=O)CO)CC3OC1CC(N)C(O)C(C)O1 (stereo not drawn)		5.95 and 5.71 and 6.00		110% and 102% and 101%	15.7% and 29.5% and 13.9%	109% and 108% and 110%	92.8% and 109% and 77.7%	54.2% and 77.3% and 56%	1.35% and 2.21% and 0.95%				
Cc1[nH]c2ccccc2c1CCNCc1ccc(/C=C/C(=O)NO)cc1		< 6.50 and 6.73 and 6.84				97.4% and 118% and 105%				108% and 110% and 106%	88.2% and 101% and 95.5%	84.7% and 96.6% and 98.5%	115% and 98.6% and 72.2%
Cc1cnc(CNC(=O)c2c(=O)c3ccc(N4CCCN(C)CC4)nc3n3c2sc2ccccc23)cn1					57.2% [middle of 12 runs]			64.5% [middle of 12 runs]	55.2% [middle of 12 runs]				
Nc1ccn(C2OC(CO)C(O)C2(F)F)c(=O)n1 (stereo not drawn)		6.63 and 6.42 and 6.66		76% and 78.1% and 78.7%	25.4% and 37.8% and 20.9%	97% and 108% and 101%	37.7% and 50.4% and 35.4%	34.4% (2×) and 26.7%	18.3% and 20.1% and 17.3%				
O=C(NO)c1cnc(N2CCN(S(=O)(=O)c3ccc4ccccc4c3)CC2)nc1				20% and 107% and 82%	24.6% and 0.24% and 0.11%	58.1% and 117% and 100%	22.4% and 79.1% and 64.8%	21.8% and 2.34% and 0.84%	25.1% and 0.26% and 0.18%				

More lines, main results first:

pIC50 [1]	pIC50 (curve of compound)	pIC50 (compound alone, run of 04/16/2024)	SMILES	viability, T/C (compound 0.1 µM)	viability, T/C (compound 3.16 µM)	viability, T/C (compound 0.0316 µM)	viability, T/C (compound 0.316 µM)	viability, T/C (compound 1 µM)	viability, T/C (compound 10 µM)	viability, T/C (compound 0.000999 µM)	viability, T/C (compound 0.00316 µM)	viability, T/C (compound 0.00999 µM)	viability, T/C (compound 0.0999 µM)
	< 5.00		COc1cc(C2c3cc4c(cc3C(OC3OC5COC(C)OC5C(O)C3O)C3COC(=O)C23)OCO4)cc(OC)c1O (stereo not drawn)	90.5% and 97% and 92.2%	61.1% and 67.3% and 96.7%	111% and 82.8% and 104%	111% and 90.5% and 98.7%	99.6% and 110% and 104%	56.5% and 50% and 72.2%				
	< 5.00 and 5.28		COc1ncnc(C2CC2)c1-c1ncc2cnn(Cc3ccc(-c4nc(C(F)(F)F)cn4C(C)C)cc3)c2n1	102% and 106% and 78.5%	106% and 86.4% and 75.8%	101% and 109% and 104%	102% and 82.9% and 81.3%	109% and 91.4% and 78.3%					
< 5.00 and 5.04 and 5.13		< 5.00 and 5.08 and 5.09	Cc1[nH]c2ccc(F)cc2c1-c1nc2c3cccnc3c3ncccc3c2[nH]1			91.7% [middle of 12 runs]							
	< 5.00		Cc1cccc(N(C)C(=O)C2C(O)CCN2c2nc(C)cc(C(F)(F)F)c2C#N)c1 (stereo not drawn)	83% and 85.8% and 99.7%	98.2% and 99.2% and 94.4%	121% and 97.5% and 105%	103% and 89.3% and 99.5%	89.3% and 97.7% and 105%	80.9% and 80.7% and 90.8%				
	< 6.50		Cn1ncnc1[C@H]1c2n[nH]c(=O)c3cc(F)cc(c23)N[C@@H]1c1ccc(F)cc1			85% and 109% and 106%	96.5% and 113% and 105%			109% and 105% and 89.3%	106% and 88.2% and 91.4%	106% and 94.9% and 99.7%	106% and 97.6% and 113%
	< 5.00		O=C(c1cc(Cc2n[nH]c(=O)c3ccccc23)ccc1F)N1CCN(C(=O)C2CC2)CC1	111% and 100% and 110%	116% and 100% and 111%	98.7% and 97.4% and 108%	100% and 98.7% and 102%	93.8% and 105% and 109%	106% and 82.9% and 90.7%				
	< 5.00		O=c1[nH]cc(F)c(=O)[nH]1	107% (2×) and 88.7%	87.9% and 80.7% and 79.4%	94.9% and 109% and 94.2%	107% and 102% and 96.5%	88.8% and 92.9% and 94.9%	80.8% and 69.7% and 70.6%				
